Patent publication US20040204746A1, “Enhanced bioavailability of nutrients, pharmaceutical agents, and other bioactive substances through laser resonant homogenization or modification of molecular shape or crystalline form” (priority 1999, published 2004)

Experiments:
[1] = tested on: murine macrophages; assay: Nitrite (nitric oxide) production by LPS-stimulated murine macrophages; format: cell-based; settings: 24 hours; for nitric oxide byproducts compared with control untreated Arg #4: 120 mcg/ml; for Nitrites: determined from optical density; for Nitrites / Mean O.D. ± S.D.: 120 mcg/ml arginine, LPS 1 ng/ml; for Mean O.D. ± S.D.: optical density at 540 nm
Procedure: Paracelsian in Ithaca, N.Y., an outside independent lab, performed the following bioassays. Each arginine sample was added to 12 wells of murine macrophages to achieve a concentration of 120 mcg/ml. This is the estimated serum concentration for a 70 Kg person after ingesting a 6-gram serving of arginine, a level observed in numerous clinical studies to be associated with a wide range of physiologic benefits. LPS at 1 ng/ml was added to each well and the cells were incubated for 24 hours. The nitrite concentration in each well's supernatant was determined 24 hours after initiation of treatment as a relative measure of nitric oxide production.
The results are listed in order of relative nitrite production, from greatest to least. The first column is the Arg #, the second the mean plus or minus the standard deviation of the optical density measurement at 540 nm, a measure of nitrite concentration, and the third column the relative production of nitrites expressed in micrograms per ml as determined from optical density.

[2] = tested on: person with relapsing lupus; assay: Case report: relapsing lupus treated with the methylation formula; format: in vivo, human; settings: before the formula
Description: The exemplary patient had suffered with relapsing lupus for several years. At the time of entry into the methylation formula studies of EXAMPLE 6, they had experienced a relapse of severe disease for several months.
Their disease was characterized by exquisitely tender blistering and ulcerating lesions on their hands and feet that made it difficult to walk or open a cabinet door without severe pain. Their skin was pallid, they were extremely fatigued with a chronic low energy state, and had suffered extensive hair loss. Their sedimentation rate, a marker for systemic inflammation, was highly elevated at 99, whereas a normal level would be 0-30. […] They declined the use of corticosteroids due to severe treatment side effects during a prior relapse.
The subject was randomized to the placebo control group and for 3 months had no improvement in condition. In the second phase of the study, they were placed on a high dose of the methylation formula of 6 grams of laser treated betaine plus cofactors daily. […]
The subject continued on a lower dose of the laser treated methylation formula for 5 more months, reduced to 1-2 grams of the laser treated betaine plus cofactors. […] At the end of fifth month of lower dose treatment, their sedimentation rate had dropped to the very low normal value of 1, the lowest level ever recorded for them.

[3] = tested on: subject with osteoarthritis; assay: Pilot test: blood SAMe level and knee pain in a subject with osteoarthritis; format: in vivo, human
Description: As a pilot test, a subject with osteoarthritis had blood SAMe levels measured while taking SAMe and then while taking a betaine formulation. […] On this level of SAMe ingestion for three months, their blood SAMe level was 4.9 (the normal range for this lab is 4.2-8.2). At this time, SAMe was discontinued and they started a methylation formula with one gram of laser treated betaine plus laser treated metabolic cofactors. The betaine and metabolic co-factors were in the same ratios as in the double blind clinical study formula to be described below.

[4] = 1600 mg per day, cited from earlier work
[5] = tested on: liver SAMe; settings: animal studies; cited from earlier work
[6] = tested on: subjects that had just survived a first myocardial infarction; settings: betaine 9 grams daily plus vitamin B12, liver extract, creatine precursor; placebo 25%; cited from earlier work
[7] = tested on: murine macrophages; assay: TNF-alpha production by Echinacea-stimulated murine macrophages (ELISA); format: cell-based; settings: 24 hours, samples at 20 mg/ml with Echinacea
Procedure: An independent outside lab, Paracelsian in Ithaca, N.Y., performed the following bioassays. A standardized Echinacea sample alone or with 20 mg/ml of Samples 1, 2, or 3 were incubated in the tissue culture media of triplicate wells of murine macrophages for 24 hours after Echinacea stimulation and then assayed for tumor necrosis factor-alpha (TNF-alpha) production in triplicate ELISA wells. Positive controls with lipopolysaccharide (LPS) at 1 ng/ml and negative controls were also assayed in the same manner.
Those skilled in the art will appreciate that the use of murine macrophages simulates the body's immune response. Adding the herb Echinacea provides a similar response to that of an immune system that is being irritated. A TNF-alpha reading is a good marker for the extent of inflammation. Thus a substance that causes a significant increase in TNF-alpha in the macrophages can be expected to create substantial inflammation in a human body—especially a body suffering from an autoimmune disease such as inflammatory bowel disease, as well as other physiological problems such as systemic lupus erythematosus, rheumatoid arthritis and food allergies.

Row | Compound | nitric oxide byproducts compared with control untreated Arg #4 [1] | Nitrites [1] [micrograms per ml] | Mean O.D. ± S.D. [1] | other results
1 | N=C(N)NCCC[C@H](N)C(=O)O [Arg #1, L-arginine] | statistically significantly less nitric oxide byproducts | 10.6 | .215 ± .007 | 
2 | N=C(N)NCCC[C@H](N)C(=O)O [Arg #2, L-arginine] | statistically significantly less nitric oxide byproducts | 10.8 | .219 ± .008 | 
3 | N=C(N)NCCC[C@H](N)C(=O)O [Arg #3, L-arginine] | statistically significantly more nitric oxide byproducts | 12.0 | .232 ± .010 | 
4 | N=C(N)NCCC[C@H](N)C(=O)O [Arg #4, L-arginine] |  | 11.4 | .224 ± .006 | 
5 | CCN(CCO)CCCC(C)Nc1ccnc2cc(Cl)ccc12 (stereo not shown) [Plaquenil] |  |  |  | relief of lupus symptoms [2]: did little to relieve their symptoms
6 | C[S+](CC[C@H](N)C(=O)O)C[C@H]1O[C@@H](n2cnc3c(N)ncnc32)[C@H](O)[C@@H]1O (stereo partly shown) [SAMe, S-adenosyl-methionine] |  |  |  | blood SAMe level ([3]; 800 mg of SAMe daily for three months, normal range 4.2-8.2): 4.9; knee pain ([3]; osteoarthritis): moderate degree of relief; side effects [4]: essentially free of side effects; onset of anti-depressant effects ([4]; tricyclics 4-6 weeks): within one week
7 | C[N+](C)(C)CC(=O)O [betaine, N,N,N-trimethylglycine] |  |  |  | rise of liver SAMe levels [5]: up to fourfold; mortality after one year [6]: no mortality
8 | lipopolysaccharide [LPS 1 ng/ml Control] |  |  |  | TNF-alpha ± S.D. [7]: 2863 ± 185.7
